Usually solubility stands for the dissolved amount per volume that the medium holds. The low end stands for a poorly soluble substance, the high end for a readily soluble substance.

One data set deals with T1, CDK2/Cyclin A (Homo sapiens, UniProt P24941).
T1 construct: made in house; host or cells: CDK2: insect cells (baculovirus); cyclin A: E. coli
The data set can be described thus: Inhibition of CDK2/Cyclin A retinoblastoma kinase activity (apparent Ki). The following applies: read-out: CDK2 Ki. Type of data set: biochemical. As for the experimental part:
Cyclin-dependent kinase activity was measured by quantifying the enzyme-catalyzed, time-dependent incorporation of radioactive phosphate from [^32P]ATP or [^33P]ATP into a protein substrate. […] Reactions were initiated with enzyme, incubated at 30° C., and terminated after 20 minutes by the addition of ethylenediaminetetraacetic acid (EDTA) to 250 mM. […] Radioactivity was quantified by exposing the dried membranes to a phosphorimager.
Apparent Ki values were measured by assaying enzyme activity in the presence of different inhibitor compound concentrations and subtracting the background radioactivity measured in the absence of enzyme. Inhibition data were fit to an equation for competitive inhibition using Kaleidagraph (Synergy Software), or were fit to an equation for competitive tight-binding inhibition using the software KineTic (BioKin, Ltd.).
A complex of CDK2 and proteolyzed cyclin A was prepared and purified by gel filtration. […] Ki values were measured as described above.

A short description of data set [1]: Measurement of kinetic solubility. To be noted: 100 mM sodium phosphate buffer, pH 6.5, aqueous buffer, kinetic from dmso stock. As for the experimental part:
Kinetic solubility was determined with a […] stock solution from the compound(s) of interest. […] Samples and standards were then centrifuged and an aliquot was removed for HPLC analysis. Samples and standards were analyzed by HPLC and a final concentration for the sample was determined based on a one-point calibration curve from the corresponding standard. Results were reported as μg's/mL.

Converted amounts (≈) assume the structure as drawn.

Take `Cc1c(CNC(C)C)cncc1-c1ccc2[nH]nc(-c3ncc[nH]3)c2c1` [Example 48, {5-[3-(1H-Imidazol-2-yl)-1H-indazol-5-yl]-4-methyl-pyridin-3-ylmethyl}-isopropyl-amine]: the Ki at CDK2/Cyclin A was less than 50 nM. Besides, the solubility in data set [1] is greater than 120 µg/mL. Regarding `CCNCc1cncc(-c2ccc3[nH]nc(-c4nc(-c5ccccc5)c(C(=O)N(C)C5CCCCC5)[nH]4)c3c2)c1C` [Example 13, 2-[5-(5-Ethylaminomethyl-4-methyl-pyridin-3-yl)-1H-indazol-3-yl]-5-phenyl-3H-imidazole-4-carboxylic acid cyclohexyl-methyl-amide], the Ki on CDK2/Cyclin A is greater than 200 nM. In addition, the solubility in data set [1] was 20 to 120 µg/mL (≈ 36.5 to 219 µM). Take `CCNCc1cncc(-c2ccc3[nH]nc(-c4nc(-c5cccc(F)c5)c[nH]4)c3c2)c1C` [Example 32, Ethyl-(5-{3-[4-(3-fluoro-phenyl)-1H-imidazol-2-yl]-1H-indazol-5-yl}-4-methyl-pyridin-3-ylmethyl)-amine]: the Ki on CDK2/Cyclin A is less than 50 nM. The molecule further showed a solubility in data set [1] greater than 120 µg/mL. `CCNCc1cncc(-c2ccc3[nH]nc(-c4ncc(C(=O)N[C@H]5CCCCNC5=O)[nH]4)c3c2)c1C` [Example 75, 2-(5-{5-[(ethylamino)methyl]-4-methylpyridin-3-yl}-1H-indazol-3-yl)-N-[(3S)-2-oxoazepan-3-yl]-1H-imidazole-5-carboxamide]: the Ki on CDK2/Cyclin A was less than 50 nM. Further, in data set [1], the solubility was greater than 120 µg/mL. For `CCNCc1cncc(-c2ccc3[nH]nc(-c4nc(-c5ccccc5)c(C(=O)NCc5ccccc5)[nH]4)c3c2)c1C` [Example 5, 2-[5-(5-Ethylaminomethyl-4-methyl-pyridin-3-yl)-1H-indazol-3-yl]-5-phenyl-3H-imidazole-4-carboxylic acid benzylamide], the Ki at CDK2/Cyclin A is less than 50 nM. Also, the solubility in data set [1] is 20 to 120 µg/mL (≈ 36.9 to 222 µM). On the same counts, the results for `CCNCc1cncc(-c2ccc3[nH]nc(-c4ncc(C(=O)N5CCOCC5)[nH]4)c3c2)c1C` [Example 55, N-[(4-methyl-5-{3-[5-(morpholin-4-ylcarbonyl)-1H-imidazol-2-yl]-1H-indazol-5-yl}pyridin-3-yl)methyl]ethanamine] are less than 50 nM and greater than 120 µg/mL. Turning to `CCNCc1cncc(-c2ccc3[nH]nc(-c4nc5c([nH]4)CCCC5)c3c2)c1C` [Example 21, Ethyl-{4-methyl-5-[3-(4,5,6,7-tetrahydro-1H-benzoimidazol-2-yl)-1H-indazol-5-yl]-pyridin-3-ylmethyl}-amine], the Ki on CDK2/Cyclin A was less than 50 nM.

Take `CCNCc1cncc(-c2ccc3[nH]nc(-c4ncc(C(=O)N5CCN(CCOC)CC5)[nH]4)c3c2)c1C` [Example 78, N-({5-[3-(5-{[4-(2-methoxyethyl)piperazin-1-yl]carbonyl}-1H-imidazol-2-yl)-1H-indazol-5-yl]-4-methylpyridin-3-yl}methyl)ethanamine]: the Ki on CDK2/Cyclin A was less than 50 nM. `CCc1nc(-c2n[nH]c3ccc(-c4cncc(N)c4C)cc23)[nH]c1CC` [Example 37, 5-[3-(4,5-Diethyl-1H-imidazol-2-yl)-1H-indazol-5-yl]-4-methyl-pyridin-3-ylamine]: the Ki on CDK2/Cyclin A is less than 50 nM. Consider `CCNCc1cncc(-c2ccc3[nH]nc(-c4ncc(C(=O)N5C[C@@H](C)O[C@@H](C)C5)[nH]4)c3c2)c1C` [Example 60, N-({5-[3-(5-{[(2R,6S)-2,6-dimethylmorpholin-4-yl]carbonyl}-1H-imidazol-2-yl)-1H-indazol-5-yl]-4-methylpyridin-3-yl}methyl)ethanamine], for which the Ki on CDK2/Cyclin A was less than 50 nM. On the same count and under the same terms, to `CCNCc1cncc(-c2ccc3[nH]nc(-c4ncc(C(=O)N5CCC(Oc6ccccc6)CC5)[nH]4)c3c2)c1C` [Example 70, N-{[4-methyl-5-(3-{5-[(4-phenoxypiperidin-1-yl)carbonyl]-1H-imidazol-2-yl}-1H-indazol-5-yl)pyridin-3-yl]methyl}ethanamine] belongs less than 50 nM; to `Cc1c(N)cncc1-c1ccc2[nH]nc(-c3nc(-c4cccc(F)c4)c[nH]3)c2c1` [Example 38, 5-{3-[4-(3-Fluoro-phenyl)-1H-imidazol-2-yl]-1H-indazol-5-yl}-4-methyl-pyridin-3-ylamine], less than 50 nM.
